We go through 10 compounds from publication PMC8151276, “An Integrated Approach toward NanoBRET Tracers for Analysis of GPCR Ligand Engagement” (Molecules, 2021).

Holding throughout (type): binding
For one test, the target named is T1, ADRA2B (Homo sapiens, UniProt P18089).
T1 construct: purchased Promega (in-house HiBiT-GPCR construct library, NanoBRET)
T1 sequence (P18089 1-450): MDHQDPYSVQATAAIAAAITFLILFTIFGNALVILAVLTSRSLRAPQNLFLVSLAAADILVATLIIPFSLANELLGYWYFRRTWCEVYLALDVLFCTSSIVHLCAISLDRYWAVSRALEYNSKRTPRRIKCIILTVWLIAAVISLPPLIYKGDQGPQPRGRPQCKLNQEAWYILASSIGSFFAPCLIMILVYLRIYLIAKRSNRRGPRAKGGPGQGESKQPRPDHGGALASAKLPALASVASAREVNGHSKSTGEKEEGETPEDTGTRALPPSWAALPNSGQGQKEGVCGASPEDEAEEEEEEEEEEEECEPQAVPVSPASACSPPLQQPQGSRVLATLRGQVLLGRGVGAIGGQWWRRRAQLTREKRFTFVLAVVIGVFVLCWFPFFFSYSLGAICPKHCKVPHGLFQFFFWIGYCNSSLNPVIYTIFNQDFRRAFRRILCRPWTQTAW
The test is described as follows: NanoBRET screen HiBiT-ADRA2B in HEK293. For orientation: BRET reads energy transfer from a luciferase to a nearby fluorophore.

In a further test the target is T2, OPRK1 (Homo sapiens, UniProt P41145).
T2 construct: purchased Promega (in-house HiBiT-GPCR construct library, NanoBRET)
The experiment in a line: NanoBRET screen HiBiT-OPRK1 in HEK293. How it is done:
(§1) Each tracer candidate was screened across the entire library of HiBiT-GPCR constructs using NanoBRET as the detection modality. As depicted in Figure 4A, the specificity of interactions was evaluated through decrease in BRET due to competitive displacement of a bound tracer by excess parental compound. Each tracer was analyzed for binding to each HiBiT-GPCR fusion in the absence and in the presence of competing parental compound. Briefly, HEK293 cells were transfected with HiBiT-GPCR constructs diluted into promoterless DNA to reduce expression and maximize translocation to the cell surface. Each tracer candidate was then screened at concentrations of 1 μM and 0.1 μM across cells expressing these fusions. Cells were treated for 1.5 h with tracer either alone or in the presence of 20 μM competing parental compound (i.e., control). BRET was measured upon addition of purified LgBiT and subsequent complementation with HiBiT genetically fused to a GPCR. The specificity of interactions was assessed through a decrease in BRET signal due to competitive displacement of the bound tracer. To further gauge the robustness of these interactions, the fold response over the control (i.e., BRETtracer/BRETcontrol) was calculated. We chose a 1.5-fold response, which translates to ≥7-fold signal over noise as the minimal threshold required to score an interaction as positive. […]. Below we highlight the screening results obtained for our exemplary fluorescent tracers based on Clozapine, Amitriptyline and AZD1283.
(§2) HiBiT-GPCR DNA constructs were diluted in 10 mM Tris pH 8 to a final concentration of 0.01 μg/μL, arrayed in 96-well plates and stored at −20 °C. For transfection, HEK293 cells were suspended in Opti-MEM (without phenol red) supplemented with 2% fetal bovine serum (Seradigm) and 100 units/mL penicillin–streptomycin (Gibco) at a final concentration of 220,000 cells/mL and dispensed into white 96-well plates at 90 μL/well. Subsequent transfections and screens were carried using an Agilent Bravo Automated Liquid Handling Platform. First, the 96-well HiBiT DNA arrays were diluted 25-fold in Opti-MEM (without serum or phenol red) to a final concentration of 0.0004 μg/μL and 20 μL of the diluted DNAs were transferred into new 96-well plates. Next, promoterless carrier DNA (1 μg/μL) was diluted 25-fold (0.04 μg/μL) and then dispensed into the diluted arrays at 20 μL/well. Following brief mixing, Viafect transfection reagent (Promega) diluted 16-fold into Opti-MEM was dispensed into the plates at 40 μL/well. After mixing by pipetting, plates were incubated for 10 min on the pipetting station deck. The DNA-transfection reagent complexes were then added to plates containing cells. To facilitate the screen, 10 μL of DNA-transfection reagent complexes were added in duplicates to the top 4 and bottom 4 rows, resulting in two identical 48-well arrays per plate. Plates with transfected cells were incubated for 18–20 h at 37 °C/5% CO2. A screen of each tracer across the entire library using two different concentrations requires duplicate plates of transfected cells. Depending on the number of tracers being screened, transfections can be scaled up using the same ratios. The next day, for each tracer, four 20× screening solutions in tracer dilution buffer (Promega) were prepared: two duplicates at final concentration of 20 μM and two duplicates at a final concentration of 2 μM. A competing unmodified compound was added to one of each duplicate at a final concentration of 400 μM. The four resulting solutions were diluted 4-fold in Opti-MEM without serum or phenol red to generate 5× solutions (5 µM and 0.5 µM tracer +/− 100 μM competing compound). To screen the library, a BioTek MultiFlo FX liquid dispenser was used to dispense 22.5 µL of tracer solution to the top 4 rows and 22.5 µL tracer + competing compound solution to the 4 bottom rows. Plates were briefly mixed on an orbital shaker and incubated for 1.5 h at room temperature. […]

A further test concerns the target T3, SSTR1 (Homo sapiens, UniProt P30872).
T3 construct: purchased Promega (in-house HiBiT-GPCR construct library, NanoBRET)
The experiment in a line: NanoBRET screen HiBiT-SSTR1 in HEK293. How it is done:
as §1, §2

The next test addresses T4, NPY2R (Homo sapiens, UniProt P49146).
T4 construct: purchased Promega (in-house HiBiT-GPCR construct library, NanoBRET)
T4 sequence (P49146 1-381): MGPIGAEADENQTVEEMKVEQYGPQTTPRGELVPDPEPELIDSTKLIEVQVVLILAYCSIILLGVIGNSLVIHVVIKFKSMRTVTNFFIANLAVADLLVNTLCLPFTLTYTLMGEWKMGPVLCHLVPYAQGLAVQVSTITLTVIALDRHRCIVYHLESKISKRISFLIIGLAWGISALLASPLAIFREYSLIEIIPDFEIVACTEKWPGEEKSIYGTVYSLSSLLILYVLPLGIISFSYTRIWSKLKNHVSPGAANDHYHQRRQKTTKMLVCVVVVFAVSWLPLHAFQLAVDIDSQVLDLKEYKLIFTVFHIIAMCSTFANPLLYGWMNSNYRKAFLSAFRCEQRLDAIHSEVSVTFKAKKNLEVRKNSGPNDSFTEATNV
The experiment in a line: NanoBRET screen HiBiT-NPY2R in HEK293. How it is done:
as §1, §2

T3 sequence (P30872 whole entry): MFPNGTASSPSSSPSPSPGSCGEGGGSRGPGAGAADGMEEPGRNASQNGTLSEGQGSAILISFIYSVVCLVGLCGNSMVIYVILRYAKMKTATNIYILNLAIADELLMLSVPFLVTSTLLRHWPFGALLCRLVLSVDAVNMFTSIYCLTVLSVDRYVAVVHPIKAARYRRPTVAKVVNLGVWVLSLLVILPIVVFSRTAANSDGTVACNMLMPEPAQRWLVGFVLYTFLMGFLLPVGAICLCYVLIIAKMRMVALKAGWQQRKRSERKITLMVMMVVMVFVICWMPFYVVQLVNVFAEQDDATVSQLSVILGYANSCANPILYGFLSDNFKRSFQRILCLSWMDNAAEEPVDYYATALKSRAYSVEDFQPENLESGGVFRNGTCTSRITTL
T2 sequence (P41145 whole entry): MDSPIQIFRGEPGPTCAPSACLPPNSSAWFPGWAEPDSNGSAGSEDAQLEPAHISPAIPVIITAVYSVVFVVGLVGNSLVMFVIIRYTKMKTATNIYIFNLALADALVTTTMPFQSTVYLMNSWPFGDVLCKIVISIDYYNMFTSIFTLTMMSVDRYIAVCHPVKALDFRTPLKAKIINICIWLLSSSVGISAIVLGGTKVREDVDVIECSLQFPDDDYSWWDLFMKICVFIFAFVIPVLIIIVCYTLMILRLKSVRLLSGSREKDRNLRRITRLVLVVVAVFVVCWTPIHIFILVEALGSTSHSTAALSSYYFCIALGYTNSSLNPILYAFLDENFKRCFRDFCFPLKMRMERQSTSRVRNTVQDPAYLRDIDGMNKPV

In the case of `CCOC(=O)c1cc(C#N)c(N2CCC(C(=O)NS(=O)(=O)Cc3ccccc3/C=C/C(=O)NCCNC(=O)CCc3ccc4n3[B-](F)(F)[N+]3=C(c5ccc[nH]5)C=CC3=C4)CC2)nc1C` [AZD1283-1-NB590], the “NanoBRET Fold Response” value at ADRA2B (ADRA2B, 0.1μM) was found to be 1.09; on ADRA2B (ADRA2B, 1μM), 1.05; at OPRK1 (OPRK1, 0.1μM), 0.98; on OPRK1 (OPRK1, 1μM) it was 0.99; at SSTR1 (SSTR1, 0.1μM) it was 1.08; at SSTR1 (SSTR1, 1μM), 1.10. For the same compound, the “NanoBRET Fold Response” value on NPY2R (NPY2R, 0.1μM) was determined as 1.04; at NPY2R (NPY2R, 1μM), 1.07.
On to `COc1ccc2[nH]c(-c3ccc(CNC(=O)CCOCCOCCOCCOCCNC(=O)CCc4ccc5n4[B-](F)(F)[N+]4=C(c6ccc[nH]6)C=CC4=C5)cc3)c(CCNC(C)=O)c2n1` [AzomelatoninICO9-2-NB590], for which the “NanoBRET Fold Response” value at ADRA2B (0.1μM tracer) is given as 1.35; on ADRA2B (1μM tracer), 1.12; on OPRK1 (0.1μM tracer) it was 0.96; at OPRK1 (1μM tracer), 0.93; on SSTR1 (0.1μM tracer), 1.13; on SSTR1 (1μM tracer) it was 1.01. Further, the “NanoBRET Fold Response” value is listed as 0.99 on NPY2R (0.1μM tracer) and 0.88 on NPY2R (1μM tracer).
As to `CCCn1c(=O)c2[nH]c(-c3ccc(OCC(=O)NCCNC(=O)CCOCCNC(=O)c4ccc(CNC(=O)CCc5ccc6n5[B-](F)(F)[N+]5=C(c7ccc[nH]7)C=CC5=C6)cc4)cc3)nc2n(CCC)c1=O` [XAC-3-NB590], the “NanoBRET Fold Response” value on ADRA2B (ADRA2B, tracer 0.1μM) was 0.91; at ADRA2B (ADRA2B, tracer 1μM), 0.95; at OPRK1 (OPRK1, tracer 0.1μM), 0.97; on OPRK1 (OPRK1, tracer 1μM), 1.34; at SSTR1 (SSTR1, tracer 0.1μM) it was 0.98; at SSTR1 (SSTR1, tracer 1μM) it was 1.05. The “NanoBRET Fold Response” value at NPY2R (NPY2R, tracer 0.1μM) is given as 0.93; on NPY2R (NPY2R, tracer 1μM), 1.03.
Consider `COc1ccccc1N1CCN(CCCCN2C(=O)c3ccc(CNC(=O)CCOCCNC(=O)c4ccc(CNC(=O)CCc5ccc6n5[B-](F)(F)[N+]5=C(c7ccc[nH]7)C=CC5=C6)cc4)cc3C2=O)CC1` [NAN-190-3-NB590], for which the “NanoBRET Fold Response” value amounted to 4.24 at ADRA2B (ADRA2B, tracer 0.1μM); 5.21 on ADRA2B (ADRA2B, tracer 1μM); 0.89 at OPRK1 (OPRK1, tracer 0.1μM); 1.16 at OPRK1 (OPRK1, tracer 1μM); 1.03 at SSTR1 (SSTR1, tracer 0.1μM); 1.12 at SSTR1 (SSTR1, tracer 1μM). Besides, the “NanoBRET Fold Response” value was found to be 1.05 at NPY2R (NPY2R, tracer 0.1μM) and 1.07 at NPY2R (NPY2R, tracer 1μM).
`COc1ccc2c(n1)c(CCNC(C)=O)cn2CCNC(=O)CCc1ccc2n1[B-](F)(F)[N+]1=C(c3ccc[nH]3)C=CC1=C2` [Azamelatonin-1-NB590]: the “NanoBRET Fold Response” value on ADRA2B (0.1μM tracer) is given as 1.18; at ADRA2B (1μM tracer) it was 0.96; on OPRK1 (0.1μM tracer) it was 0.92; on OPRK1 (1μM tracer), 0.92; at SSTR1 (0.1μM tracer), 1.08; on SSTR1 (1μM tracer), 1.03. In addition, the “NanoBRET Fold Response” value at NPY2R (0.1μM tracer) is reported as 1.19; at NPY2R (1μM tracer), 0.85.
`O=C(CCOCCOCCOCCOCCNC(=O)CCc1ccc2n1[B-](F)(F)[N+]1=C(c3ccc[nH]3)C=CC1=C2)NCCCN1CCN(C2=Nc3ccccc3Oc3ccc(Cl)cc32)CC1` [Loxapine-a-2-NB590]: the “NanoBRET Fold Response” value at ADRA2B (ADRA2B, tracer 0.1μM) worked out at 3.38; at ADRA2B (ADRA2B, tracer 1μM) it was 5.35; on OPRK1 (OPRK1, tracer 0.1μM), 1.03; at OPRK1 (OPRK1, tracer 1μM) it was 0.95; on SSTR1 (SSTR1, tracer 0.1μM), 1.06; on SSTR1 (SSTR1, tracer 1μM) it was 1.30. Also, the “NanoBRET Fold Response” value at NPY2R (NPY2R, tracer 0.1μM) was 1.02; at NPY2R (NPY2R, tracer 1μM) it was 1.17.
On to `COc1ccccc1N1CCN(CCCCN2C(=O)c3ccc(CNC(=O)CCOCCOCCOCCOCCNC(=O)CCc4ccc5n4[B-](F)(F)[N+]4=C(c6ccc[nH]6)C=CC4=C5)cc3C2=O)CC1` [NAN-190-2-NB590], for which the “NanoBRET Fold Response” value was determined as 4.00 at ADRA2B (ADRA2B, tracer 0.1μM); 5.99 at ADRA2B (ADRA2B, tracer 1μM); 1.02 at OPRK1 (OPRK1, tracer 0.1μM); 0.94 on SSTR1 (SSTR1, tracer 0.1μM); 1.08 on SSTR1 (SSTR1, tracer 1μM); 1.00 on NPY2R (NPY2R, tracer 0.1μM). Besides, the “NanoBRET Fold Response” value at NPY2R (NPY2R, tracer 1μM) is given as 0.92.
Take `CC(C)N(CC[C@H](c1ccccc1)c1cc(CCNC(=O)c2ccc(CNC(=O)CCc3ccc4n3[B-](F)(F)[N+]3=C(c5ccc[nH]5)C=CC3=C4)cc2)ccc1O)C(C)C` [Tolterodine-BZ-NB590]: the “NanoBRET Fold Response” value at ADRA2B (ADRA2B, tracer 0.1μM) stood at 1.04; on ADRA2B (ADRA2B, tracer 1μM), 1.13; at OPRK1 (OPRK1, tracer 0.1μM), 0.90; at OPRK1 (OPRK1, tracer 1μM) it was 0.96; at SSTR1 (SSTR1, tracer 0.1μM) it was 1.15; on SSTR1 (SSTR1, tracer 1μM), 1.20. The “NanoBRET Fold Response” value at NPY2R (NPY2R, tracer 0.1μM) stood at 0.90; at NPY2R (NPY2R, tracer 1μM), 1.04.
In the case of `CC(C)N(CC[C@H](c1ccccc1)c1cc(CCNC(=O)CCOCCOCCOCCOCCNC(=O)CCc2ccc3n2[B-](F)(F)[N+]2=C(c4ccc[nH]4)C=CC2=C3)ccc1O)C(C)C` [Tolterodine-2-NB590], the “NanoBRET Fold Response” value is listed as 0.95 at ADRA2B (ADRA2B, tracer 0.1μM); 1.04 on ADRA2B (ADRA2B, tracer 1μM); 1.12 on OPRK1 (OPRK1, tracer 0.1μM); 0.95 at OPRK1 (OPRK1, tracer 1μM); 1.11 on SSTR1 (SSTR1, tracer 0.1μM); 1.21 on SSTR1 (SSTR1, tracer 1μM). Moreover, the “NanoBRET Fold Response” value at NPY2R (NPY2R, tracer 0.1μM) was found to be 1.01; on NPY2R (NPY2R, tracer 1μM), 0.93.
With `N#CN=C(NCCCOc1cccc(CN2CCCCC2)c1)NCCNC(=O)CCOCCOCCOCCOCCNC(=O)CCc1ccc2n1[B-](F)(F)[N+]1=C(c3ccc[nH]3)C=CC1=C2` [Aminopotentidine-2-NB590], the “NanoBRET Fold Response” value is recorded as 1.12 at ADRA2B (ADRA2B, tracer 0.1μM); 1.11 on ADRA2B (ADRA2B, tracer 1μM); 1.14 on OPRK1 (OPRK1, tracer 0.1μM); 1.07 on OPRK1 (OPRK1, tracer 1μM); 1.02 on SSTR1 (SSTR1, tracer 0.1μM); 0.98 on SSTR1 (SSTR1, tracer 1μM). Further, the “NanoBRET Fold Response” value amounted to 0.98 on NPY2R (NPY2R, tracer 0.1μM) and 1.00 on NPY2R (NPY2R, tracer 1μM).
